Results reported in patent US20140329912A1, “CONTRACEPTIVE COMPOSITIONS AND METHODS OF CONTRACEPTION” (INTEGRITY PHARMACEUTICALS, LLC, priority 2011, published 2014).

Key:
Sperms [1] = assay: Real-Time PCR Stress and Toxicity PathwayFinder RT2 Profiler array on treated sperm; assay type: cell-based, mice; conditions: 50 ppm
Description: (§1) Male BALB/c mice (12-16 week old) were euthanized by CO2-inhalation. The cauda epididymes was clipped and the upper portions of the vas deferens freed from surrounding tissue. Three-four cuts were made using scissors and forceps across the epididymes and several cuts along the length of the vas deferens. Sperm were allowed to swim out of the tissue. The dish was placed in a 5% CO2 incubator set at 37° C. for 10-15 minutes. The solution of sperm was diluted (50 μl sperm+450 μl complete medium) in Whittens/HCO3/BSA. Sperm was removed from the very top or sides of sperm drop to obtain the sperm with highest motility. The dish was then returned to the 5% CO2 incubator set at 37° C. to allow the sperm to capacitate for 1-3 hrs prior to use.
Sperms (10^4) were placed in 96-well plate in complete media and treated with n-propyl bromide (50 ppm) or phosphate buffered saline (control) and incubated for 10 minutes in a 5% CO2 incubator set at 37° C. The dish with sperm was then washed 3-times with phosphate buffered saline and returned to the 5% CO2 incubator set at 37° C. for a further 24 hours. Sperm were then collected by centrifugation and subjected to the Stress and Toxicity PathwayFinder™ RT^2 Profiler™ assay according to the manufacturer's instructions (SA Biosciences, Frederick, Md.). This PCR Array profiles the expression of 84 genes whose expression level is indicative of stress and toxicity. […] The array also includes genes representative of pathways activated by prolonged stress, which range from cell death by apoptosis or necrosis to growth arrest and senescence to proliferation and carcinogenesis.

Sperms [2] = assay: Toxicity screening: cell viability by MTS assay; assay type: cell-based, mice; conditions: for Average absorbance of cell-reduced MTS at 490 nm: average of trials 1-3; for Corrected average absorbance of cell-reduced MTS at 490 nm: culture media background subtracted
Description: as §1
In addition, cell viability with n-propyl bromide was measured by MTS assay (Promega, Madison, Wis.). MTS [3-(4,5-dimethylthiazol-2-yl)-5-(3-carboxymethoxyphenyl)-2-(4-sulfophenyl)-2H-tetrazolium, inner salt] was utilized according to the manufacturer's instructions. The culture growth medium consisted of Whittens-HEPES complete media, (pH 7.2-7.4) prepared and supplemented with 30 mM NaHCO3 and 10 mg/mL BSA (Bovine Serum Albumin, Sigma A0281, fatty acid free). 250 mL of Whittens-Hepes complete media includes 1461 mg of NaCl, 87.6 mg of KCl, 40.8 mg of KH2PO4, 36.1 mg of MgSO4, 247.8 mg of glucose (dextrose), 22.01 mg of pyruvic acid, 130.92 mg of lactic acid (hemi-Ca), and 1191.5 mg of HEPES. After treatments of the sperms, 30 μL of MTS solution was added to each well and pipetted up and down for ten times to ensure properly mixing and incubation was prolonged for 2 h at 37° C., 5% CO2.
Absorbance observations for trials 1-3 and calculated average are expressed as optical density. The absorbance of cell-reduced MTS was read at 490 nm on a spectrophotometer Spectra Max Plus 384, and optical density for absorbance readings is provided in Table II. Absorbance is directly proportional to the number of living cells in culture. Thus, a reduction in absorbance normalized to a control indicates toxicity to a cell. Background absorbance was measured for the culture media only in three trials. An average absorbance was calculated from the three trials. The average optical density for the three trials for the culture media (background) was then subtracted from the average optical density of the various concentration assays for n-propyl bromide (expressed in terms of ppm of n-propyl bromide). Three control trials using only phosphate buffered saline were also measured. The corrected, average optical density of each of the experimental assays was then compared to the corrected, average optical density of the control (PBS only) assays. The comparison is expressed as the percentage of MTS reduction relative to the normalized absorbance of control samples.

CCCBr [n-propyl bromide, 1-bromopropane]
cell death, necrosis, mutigencity, or DNA damage (PCR array, Table I) (Sperms [1]; a two-fold or greater change might be significant): no significant cell death, necrosis, mutigencity, or DNA damage was observed | Fold Change, gene APFA1 (Apoptotic peptidase activating factor 1) (Sperms [1]; APFA1, NM_001160, Apoptosis and Senescence, 10 minutes, washed, further 24 hours): −1.04 fold | Fold Change, gene ATM (Ataxia telangiectasia mutated) (Sperms [1]; ATM, NM_00051, Cell Cycle Control and DNA Damage Repair, 10 minutes, washed, further 24 hours): −1.01 fold | Fold Change, gene BAD (BCL2 associated agonist of cell death) (Sperms [1]; BAD, NM_004322, Apoptosis and Senescence, 10 minutes, washed, further 24 hours): −1.00 fold | Fold Change, gene BAX (BCL2 associated X protein) (Sperms [1]; BAX, NM_004324, Apoptosis and Senescence, 10 minutes, washed, further 24 hours): −1.25 fold | Fold Change, gene BCL2 (B-cell CLL/lymphoma 2) (Sperms [1]; BCL2, NM_000633, Apoptosis and Senescence, 10 minutes, washed, further 24 hours): −1.24 fold | Fold Change, gene BCL2L1 (BCL2-like 1) (Sperms [1]; BCL2L1, NM_138578, Apoptosis and Senescence, 10 minutes, washed, further 24 hours): −1.06 fold | Fold Change, gene BRCA1 (Breast cancer1, early onset) (Sperms [1]; BRCA1, NM_007294, Cell Cycle Control and DNA Damage Repair, 10 minutes, washed, further 24 hours): −1.23 fold | Fold Change, gene CASP8 (Caspase 8, apoptosis related cysteine peptidase) (Sperms [1]; CASP8, NM_001228, Apoptosis and Senescence, 10 minutes, washed, further 24 hours): −1.57 fold | Fold Change, gene CCNE1 (Cyclin E1) (Sperms [1]; CCNE1, NM_001238, Cell Cycle Control and DNA Damage Repair, 10 minutes, washed, further 24 hours): −1.06 fold | Fold Change, gene CDC25A (Cell division cycle 25, homolog A) (Sperms [1]; CDC25A, NM_001789, Cell Cycle Control and DNA Damage Repair, 10 minutes, washed, further 24 hours): −1.04 fold | Fold Change, gene CDK4 (Cyclin-dependent kinase 4) (Sperms [1]; CDK4, NM_000075, Cell Cycle Control and DNA Damage Repair, 10 minutes, washed, further 24 hours): −1.04 fold | Fold Change, gene CDKN2A (Cyclin dependent kinase inhibitor 2A) (Sperms [1]; CDKN2A, NM_000077, Cell Cycle Control and DNA Damage Repair, 10 minutes, washed, further 24 hours): −1.05 fold | Fold Change, gene CDKNA1 (Cyclin dependent kinase inhibitor 1A) (Sperms [1]; CDKNA1, NM_000389, Cell Cycle Control and DNA Damage Repair, 10 minutes, washed, further 24 hours): −1.25 fold | Fold Change, gene CFLAR (CASP8 & FADD like apoptosis regulator) (Sperms [1]; CFLAR, NM_003879, Apoptosis and Senescence, 10 minutes, washed, further 24 hours): −1.11 fold | Fold Change, gene CHEK2 (CHk2, Checkpoint homolog) (Sperms [1]; CHEK2, NM_007194, Cell Cycle Control and DNA Damage Repair, 10 minutes, washed, further 24 hours): −1.02 fold | Fold Change, gene E2F1 (E2F transcription factor 1) (Sperms [1]; E2F1, NM_005225, Cell Cycle Control and DNA Damage Repair, 10 minutes, washed, further 24 hours): −1.17 fold | Fold Change, gene GZMA (Granzyme A) (Sperms [1]; GZMA, NM_006144, Apoptosis and Senescence, 10 minutes, washed, further 24 hours): −1.26 fold | Fold Change, gene HTATIP2 (HIV-1 tat interactive protein 2) (Sperms [1]; HTATIP2, NM_006410, Apoptosis and Senescence, 10 minutes, washed, further 24 hours): −1.38 fold | Fold Change, gene MDM2 (MDM2 p53 binding protein homolog) (Sperms [1]; MDM2, NM_002392, Cell Cycle Control and DNA Damage Repair, 10 minutes, washed, further 24 hours): −1.32 fold | Fold Change, gene RB1 (Retinoblastoma 1) (Sperms [1]; RB1, NM_000321, Cell Cycle Control and DNA Damage Repair, 10 minutes, washed, further 24 hours): −1.30 fold | Fold Change, gene S100A4 (S100 calcium binding protein A4) (Sperms [1]; S100A4, NM_002961, Cell Cycle Control and DNA Damage Repair, 10 minutes, washed, further 24 hours): −1.15 fold | Fold Change, gene TERT (Telomerase reverse transcriptase) (Sperms [1]; TERT, NM_198253, Apoptosis and Senescence, 10 minutes, washed, further 24 hours): −1.16 fold | Fold Change, gene TNFRS1A (Tumor necrosis factor receptor super family member 1A) (Sperms [1]; TNFRS1A, NM_001065, Apoptosis and Senescence, 10 minutes, washed, further 24 hours): −1.36 fold | Fold Change, gene TNFRSF10B (Tumor necrosis factor receptor super family member 10b) (Sperms [1]; TNFRSF10B, NM_003842, Apoptosis and Senescence, 10 minutes, washed, further 24 hours): −1.33 fold | Fold Change, gene TNFRSF25 (Tumor necrosis factor receptor super family member 25) (Sperms [1]; TNFRSF25, NM_003790, Apoptosis and Senescence, 10 minutes, washed, further 24 hours): −1.15 fold | Fold Change, gene TP53 (Tumor protein p53) (Sperms [1]; TP53, NM_000546, Cell Cycle Control and DNA Damage Repair, 10 minutes, washed, further 24 hours): −1.06 fold | % of control (MTS reduction relative to PBS only control) (Sperms [2]; 0.1 ppm): 90% | Absorbance of cell-reduced MTS at 490 nm, Trial 1 (Sperms [2]; 0.1 ppm): 0.2 optical density | Absorbance of cell-reduced MTS at 490 nm, Trial 2 (Sperms [2]; 0.1 ppm): 0.1 optical density | Absorbance of cell-reduced MTS at 490 nm, Trial 3 (Sperms [2]; 0.1 ppm): 0.3 optical density | Average absorbance of cell-reduced MTS at 490 nm (Sperms [2]; 0.1 ppm): 0.2 optical density | Corrected average absorbance of cell-reduced MTS at 490 nm (Sperms [2]; 0.1 ppm): 0.0 optical density | % of control (MTS reduction relative to PBS only control) (Sperms [2]; 1 ppm): 100% | Absorbance of cell-reduced MTS at 490 nm, Trial 1 (Sperms [2]; 1 ppm): 0.2 optical density | Absorbance of cell-reduced MTS at 490 nm, Trial 2 (Sperms [2]; 1 ppm): 0.4 optical density | Absorbance of cell-reduced MTS at 490 nm, Trial 3 (Sperms [2]; 1 ppm): 0.1 optical density | Average absorbance of cell-reduced MTS at 490 nm (Sperms [2]; 1 ppm): 0.2 optical density | Corrected average absorbance of cell-reduced MTS at 490 nm (Sperms [2]; 1 ppm): 0.1 optical density | % of control (MTS reduction relative to PBS only control) (Sperms [2]; 5 ppm): 100% | Absorbance of cell-reduced MTS at 490 nm, Trial 1 (Sperms [2]; 5 ppm): 0.2 optical density
